Patent US20240287037A1, “CYCLOALKYL COMPOUNDS AND PHARMACEUTICAL COMPOSITIONS THAT MODULATE IKZF2” (Plexium, Inc., priority 2021, published 2024)

What was measured:
Assay type in all cases: cell-based
[1] = biological target: IKZF1 (Ikaros) (Homo sapiens (Human), UniProt Q13422+Q96SW2); experiment: IKZF1 reporter degradation assay (HEK 293T IKZF1-mNeonGreen reporter cell line); conditions: HEK 293T reporter cells, 24 hour incubation
From the text: (§1) Polycistronic plasmids were constructed for the mammalian expression of fluorescent reporter fusions of human transcription factors IKZF1 (Ikaros), IKZF2 (Helios), and IKZF3 (Aiolos). The respective protein sequences had their C-terminal end joined to a GGGGS linker repeated three times followed by mNeonGreen, P2A sequence, and mScarlet. The DNA sequences of the open reading frames are as follows:
(§2) IKZF1, IKZF2, and IKZF3 constructs were cloned into the UCOE Hygromycin expression vectors (Millipore Sigma). Reporter constructs were transfected using cationic lipid reagents into adherent HEK 293T cells and stable integrants were selected by treatment with 200 μg/mL hygromycin B. Clonal populations were obtained from the population of stable integrants either by limiting dilution or fluorescence activated cell sorting.
(§3) The clonal stable cell lines were maintained under constant 200 μg/mL hygromycin B selection while being passaged for use in the degradation assays. […] The fluorescence intensity of the IKZF1/2/3-mNeonGreen (FITC channel) and mScarlet (PE channel) reporters were routinely analyzed by flow cytometry to confirm consistent expression levels between experiments.
(§4) The IKZF1/IKZF2/IKZF3 degradation assays were carried out by harvesting the HEK 293T reporter cell lines and resuspending the cells in media formulated for reduced background fluorescence (FluoroBrite; Thermo Fisher). The respective cell lines were seeded at a density of 4000 cells/well into black-walled 384-well optical grade assay tissue culture plates. The cells were incubated overnight at 37° C. to allow for attachment to the assay plate. Dilutions of the compounds were prepared in DMSO from 10 mM compound stocks. The assay plates were treated with appropriate concentrations of the compounds by dispensing the DMSO dilutions in quadruplicate wells with an upper limit of 0.5% final DMSO.
(§5) After 24 hour incubation with the compounds, the assay plates were imaged on an ImageXpress Pico microscopy system (cells maintained at 37° C. during imaging) to obtain the fluorescent readouts. The assay plates were imaged in the FITC and Tetramethylrhodamine (TRITC) channels to obtain the mNeonGreen fluorescence intensity (reporter degradation data) and mScarlet fluorescence intensity (for cell segmentation). 293T-IKZF1 and 293T-IKZF3 reporter cell lines were imaged with exposures of 500 milliseconds (ms) for both FITC and TRITC channels, while the 293T-IKZF2 reporter cell line was imaged with exposures of 1000 ms for FITC and 1250 ms for TRITC. The resulting data was analyzed with Cell Reporter Xpress software using the 2-channel cell scoring analysis with a “percent positive” readout. The TRITC channel was selected for the “nuclei” segmentation with a threshold of 20 while the FITC channel was selected for the “Marker 1” segmentation and a threshold of 100 for the IKZF and IKZF3 reporter lines. […] The minimum segmentation width was set to 6 micrometers and the maximum segmentation width was set to 15 micrometers for all cell lines. The DC50 calculations were determined by regression to best fit four-parameter logistic curves using GraphPad Prism.

[2] = biological target: IKZF2 (Helios) (Homo sapiens (Human), UniProt Q96SW2+Q9UKS7); experiment: IKZF2 reporter degradation assay (HEK 293T IKZF2-mNeonGreen reporter cell line); conditions: 24 hour incubation; for inhibition at 1 µM: HEK-293T, 24 h
Chain of IKZF2 (Helios) (Q9UKS7 whole entry): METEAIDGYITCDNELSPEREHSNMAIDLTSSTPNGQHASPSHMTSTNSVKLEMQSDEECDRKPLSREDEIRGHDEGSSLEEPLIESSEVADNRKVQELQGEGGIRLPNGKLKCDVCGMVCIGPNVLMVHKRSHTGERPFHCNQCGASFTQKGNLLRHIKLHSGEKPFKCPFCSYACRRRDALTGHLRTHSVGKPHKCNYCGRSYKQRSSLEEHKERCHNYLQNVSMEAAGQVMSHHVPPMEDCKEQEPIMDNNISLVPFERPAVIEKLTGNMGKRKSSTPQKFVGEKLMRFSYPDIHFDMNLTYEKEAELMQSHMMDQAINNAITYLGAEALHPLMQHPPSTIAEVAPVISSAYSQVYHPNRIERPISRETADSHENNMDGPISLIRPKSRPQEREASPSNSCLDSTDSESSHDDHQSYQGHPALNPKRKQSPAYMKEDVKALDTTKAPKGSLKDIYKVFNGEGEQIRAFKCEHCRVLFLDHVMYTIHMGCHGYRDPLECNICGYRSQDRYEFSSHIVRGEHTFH
Chain of IKZF2 (Helios) (Q96SW2 whole entry): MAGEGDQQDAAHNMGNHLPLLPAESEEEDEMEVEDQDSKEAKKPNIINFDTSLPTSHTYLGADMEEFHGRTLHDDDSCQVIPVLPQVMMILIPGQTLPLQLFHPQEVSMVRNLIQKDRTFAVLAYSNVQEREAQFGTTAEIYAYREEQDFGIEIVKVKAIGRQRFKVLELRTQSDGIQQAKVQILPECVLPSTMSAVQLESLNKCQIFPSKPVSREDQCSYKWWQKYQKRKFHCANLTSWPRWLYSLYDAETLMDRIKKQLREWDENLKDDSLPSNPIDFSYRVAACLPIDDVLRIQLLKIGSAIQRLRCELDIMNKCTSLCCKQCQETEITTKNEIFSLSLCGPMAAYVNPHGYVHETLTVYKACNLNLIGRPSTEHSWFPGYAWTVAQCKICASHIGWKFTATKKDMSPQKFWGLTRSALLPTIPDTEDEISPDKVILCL
Chain of IKZF2 (Helios) (Q16531 whole entry partner): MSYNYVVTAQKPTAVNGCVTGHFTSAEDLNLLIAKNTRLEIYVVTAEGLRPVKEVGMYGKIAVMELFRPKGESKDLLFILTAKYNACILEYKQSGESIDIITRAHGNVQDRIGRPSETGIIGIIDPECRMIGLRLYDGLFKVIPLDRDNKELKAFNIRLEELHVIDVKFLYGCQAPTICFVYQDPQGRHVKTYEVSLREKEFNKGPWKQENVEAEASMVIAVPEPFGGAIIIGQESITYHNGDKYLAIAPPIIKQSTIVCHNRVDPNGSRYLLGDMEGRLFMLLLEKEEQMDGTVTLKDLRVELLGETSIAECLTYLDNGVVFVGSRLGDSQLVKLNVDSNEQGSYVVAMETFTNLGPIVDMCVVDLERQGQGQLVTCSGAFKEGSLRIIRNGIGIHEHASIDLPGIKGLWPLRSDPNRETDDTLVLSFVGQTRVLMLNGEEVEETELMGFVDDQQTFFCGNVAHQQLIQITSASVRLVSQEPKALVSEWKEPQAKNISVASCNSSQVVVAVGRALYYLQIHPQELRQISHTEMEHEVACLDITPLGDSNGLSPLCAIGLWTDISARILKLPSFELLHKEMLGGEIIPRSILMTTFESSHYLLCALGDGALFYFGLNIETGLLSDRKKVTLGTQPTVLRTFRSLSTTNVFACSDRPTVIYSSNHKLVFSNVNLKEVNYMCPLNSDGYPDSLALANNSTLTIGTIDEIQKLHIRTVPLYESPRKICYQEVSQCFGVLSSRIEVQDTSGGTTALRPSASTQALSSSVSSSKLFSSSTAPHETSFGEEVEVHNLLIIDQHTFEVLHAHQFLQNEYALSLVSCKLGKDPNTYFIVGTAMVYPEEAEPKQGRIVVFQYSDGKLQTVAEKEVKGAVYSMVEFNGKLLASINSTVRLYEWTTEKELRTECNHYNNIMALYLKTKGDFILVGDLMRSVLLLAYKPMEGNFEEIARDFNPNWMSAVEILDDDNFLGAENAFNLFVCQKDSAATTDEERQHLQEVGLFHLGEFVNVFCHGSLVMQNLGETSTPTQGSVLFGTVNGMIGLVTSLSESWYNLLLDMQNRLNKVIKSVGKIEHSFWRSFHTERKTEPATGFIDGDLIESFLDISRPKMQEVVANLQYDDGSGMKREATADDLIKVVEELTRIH
From the text: as §1, §2, §3, §4, §5

[3] = biological target: IKZF3 (Aiolos) (Homo sapiens (Human), UniProt Q96SW2+Q9UKT9); experiment: IKZF3 reporter degradation assay (HEK 293T IKZF3-mNeonGreen reporter cell line); conditions: HEK 293T reporter cells, 24 hour incubation
Chain of IKZF3 (Aiolos) (Q9UKT9 whole entry): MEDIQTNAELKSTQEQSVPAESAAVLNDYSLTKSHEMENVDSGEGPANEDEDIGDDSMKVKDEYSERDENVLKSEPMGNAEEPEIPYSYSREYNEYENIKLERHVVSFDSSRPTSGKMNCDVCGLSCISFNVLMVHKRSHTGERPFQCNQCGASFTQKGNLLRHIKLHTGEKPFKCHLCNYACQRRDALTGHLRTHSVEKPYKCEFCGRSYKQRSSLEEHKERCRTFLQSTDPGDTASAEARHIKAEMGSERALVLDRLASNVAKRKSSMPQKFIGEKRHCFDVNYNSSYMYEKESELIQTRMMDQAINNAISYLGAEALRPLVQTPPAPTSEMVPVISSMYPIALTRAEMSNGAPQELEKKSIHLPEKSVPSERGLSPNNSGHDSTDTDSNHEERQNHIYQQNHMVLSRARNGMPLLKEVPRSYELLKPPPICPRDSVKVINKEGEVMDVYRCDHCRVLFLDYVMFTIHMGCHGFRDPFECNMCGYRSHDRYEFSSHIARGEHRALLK
Chain of IKZF3 (Aiolos) (Q96SW2 whole entry): as the sequence (Q96SW2 whole entry) above
Chain of IKZF3 (Aiolos) (Q16531 whole entry partner): as the sequence (Q16531 whole entry partner) above
From the text: as §1, §2, §3, §4, §5

[4] = biological target: GSPT1 (Homo sapiens (Human), UniProt P15170+Q96SW2); experiment: GSPT1 reporter degradation assay (HEK293 hGSPT1 HiBiT-tagged cells); conditions: 24 hour incubation
Chain of GSPT1 (P15170 whole entry): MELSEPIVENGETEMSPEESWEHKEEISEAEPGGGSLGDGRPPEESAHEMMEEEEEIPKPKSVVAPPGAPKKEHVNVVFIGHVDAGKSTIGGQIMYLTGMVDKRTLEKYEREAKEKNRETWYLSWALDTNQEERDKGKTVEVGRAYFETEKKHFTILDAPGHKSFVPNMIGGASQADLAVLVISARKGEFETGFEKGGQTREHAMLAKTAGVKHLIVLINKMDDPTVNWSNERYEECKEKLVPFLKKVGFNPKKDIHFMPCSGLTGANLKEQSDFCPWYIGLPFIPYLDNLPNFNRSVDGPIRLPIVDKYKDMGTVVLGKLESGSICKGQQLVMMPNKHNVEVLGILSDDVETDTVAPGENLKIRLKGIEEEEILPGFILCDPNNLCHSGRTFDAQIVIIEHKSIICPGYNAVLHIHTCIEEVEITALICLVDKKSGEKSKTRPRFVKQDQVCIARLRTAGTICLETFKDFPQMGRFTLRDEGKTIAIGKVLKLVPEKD
Chain of GSPT1 (Q96SW2 whole entry): as the sequence (Q96SW2 whole entry) above
Chain of GSPT1 (Q16531 whole entry partner): as the sequence (Q16531 whole entry partner) above
Description: HEK293_hGSPT1_HiBiT-tagged cells were generated using CRISPR-Cas12a technology. Briefly, ˜400,000 HEK293 cells were transiently co-transfected with precomplexed ribonuclear proteins (RNPs) consisting of […] of crRNA (IDT), […] of Cas12a protein (IDT), 3 μg of ssODN donor (IDT; AltRTM modifications), 78 pmol of electroporation enhancer (IDT), and 200 ng of pMaxGFP (Lonza). The transfection was performed via nucleofection (Lonza, 4D-Nucleofector X-unit) using solution P3 and program CM-130 in a (20 μL) cuvette. Five days post-nucleofection, cells were single-cell-sorted for GFP+ (transfected) cells by FACs in 96-well plates and clonally selected. Clones were screened and verified for the desired modification via targeted deep sequencing using gene-specific primers with partial Illumina adapter overhangs as previously described. In brief, clonal cell pellets were harvested, lysed, and used to generate gene-specific amplicons with partial Illumina adapters in PCR #1. Amplicons were indexed in PCR #2 and pooled with other targeted amplicons for other loci to create sequence diversity. Additionally, 10% PhiX sequencing control V3 (Illumina) was added to the pooled amplicon library prior to running the sample on a Miseq Sequencer System (Illumina) to generate paired 2×250 bp reads. Samples were demultiplexed using the index sequences, fastq files were generated, and NGS analysis was performed using CRIS.py.
The GSTP1 degradation assay was carried out by harvesting the HEK 293T reporter cell lines and resuspending the cells in media formulated for reduced background fluorescence (FluoroBrite; Thermo Fisher). The respective cell lines were seeded at a density of 8,000 cells/well into white-opaque 384-well optical grade assay tissue culture plates (Greiner 781080-20). The cells were incubated overnight at 37° C. to allow for attachment to the assay plate. Dilutions of the compounds were prepared in DMSO from 10 mM compound stocks. […] Plates were centrifuged at 320×g for 2 minutes at room temperature, and subsequently incubated at 37° C.
After 24 hour incubation with the compounds, the plates were allowed to cool to room temperature for 10 minutes. 30 μL of HiBiT lytic buffer+1:50 HiBiT substrate Solution were added to each well. Plates were centrifuged at 320×g for 2 minutes at room temperature and then incubated with shaking at room temperature for 10 minutes covered with foil. Plates were read on a CLARIOstar microplate reader (BMG LabTech), measuring at 450 nm (donor emission) and 610 nm or 630 nm (acceptor emission). The DC50 values were determined by regression to best fit four-parameter logistic curves using GraphPad Prism.

[5] = Table 3, HEK 293T reporter cells
[6] = second (untitled) table after Table 3

Chain of IKZF1 (Ikaros) (Q13422 whole entry, the tested form may be a part): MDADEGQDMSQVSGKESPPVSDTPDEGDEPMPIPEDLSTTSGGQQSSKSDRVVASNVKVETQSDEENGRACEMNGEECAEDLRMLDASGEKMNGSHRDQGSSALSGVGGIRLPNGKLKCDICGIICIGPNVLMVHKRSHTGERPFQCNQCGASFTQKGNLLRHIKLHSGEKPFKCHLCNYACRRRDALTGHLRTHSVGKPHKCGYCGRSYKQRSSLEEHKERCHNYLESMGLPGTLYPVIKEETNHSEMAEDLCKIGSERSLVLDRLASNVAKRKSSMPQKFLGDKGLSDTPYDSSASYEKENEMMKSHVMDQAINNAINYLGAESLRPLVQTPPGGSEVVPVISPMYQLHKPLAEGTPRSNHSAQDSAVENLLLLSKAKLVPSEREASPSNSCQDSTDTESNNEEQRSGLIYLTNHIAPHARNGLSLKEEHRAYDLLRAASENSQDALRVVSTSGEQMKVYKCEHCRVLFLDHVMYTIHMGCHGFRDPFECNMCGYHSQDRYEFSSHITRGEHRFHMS
Chain of IKZF1 (Ikaros) (Q96SW2 whole entry, the tested form may be a part): as the sequence (Q96SW2 whole entry) above
Chain of IKZF1 (Ikaros) (Q16531 whole entry partner, the tested form may be a part): as the sequence (Q16531 whole entry partner) above

Structure (SMILES)	DC50 [1] [µM]	DC50 ([2]; HEK 293T reporter cells) [µM]	inhibition at 1 µM [2, 5] [%]	inhibition at 1 µM [2, 6] [%]	DC50 [3] [µM]	DC50 [4] [µM]	IKZF3% Degradation @ 1 μM ([3]; 1 μM) [%]	IKZF2% Degradation @ 1 μM [2, 5] [%]	IKZF2% Degradation @ 1 μM [2, 6] [%]
O=C1CCC(N2Cc3c(ccc(O[C@H]4CCCC[C@@H]4N4CC(C5CC5)C4)c3F)C2=O)C(=O)N1 (stereo partly drawn) [Compound 24, 3-(5-(((1S,2S)-2-(3-cyclopropylazetidin-1-yl)cyclohexyl)oxy)-4-fluoro-1-oxoisoindolin-2-yl)piperidine-2,6-dione]	> 30	0.018	85.8	85.8	> 30	> 30			
O=C1CCC(N2Cc3cc(O[C@H]4CCCC[C@@H]4N4CC(C5CCC(OC(F)F)CC5)C4)ccc3C2=O)C(=O)N1 (stereo partly drawn) [Compound 21, 3-(5-(((1S,2S)-2-(3-(4-(difluoromethoxy)cyclohexyl)azetidin-1-yl)cyclohexyl)oxy)-1-oxoisoindolin-2-yl)piperidine-2,6-dione]	> 30	0.002	86.7	86.7	0.006	> 30	32.4		
O=C1CCC(N2Cc3cc(O[C@H]4CCCC[C@@H]4N4CC(C5CC5)C4)c(F)cc3C2=O)C(=O)N1 (stereo partly drawn) [Compound 26, 3-(5-(((1S,2S)-2-(3-cyclopropylazetidin-1-yl)cyclohexyl)oxy)-6-fluoro-1-oxoisoindolin-2-yl)piperidine-2,6-dione]	> 30	0.025	77.8	77.8	> 30	> 30			
O=C1CCC(N2Cc3cc(O[C@H]4CCCC[C@@H]4N4CC(C5CCC5)C4)c(F)cc3C2=O)C(=O)N1 (stereo partly drawn) [Compound 27, 3-(5-(((1S,2S)-2-(3-cyclobutylazetidin-1-yl)cyclohexyl)oxy)-6-fluoro-1-oxoisoindolin-2-yl)piperidine-2,6-dione]	> 30	0.02	84.1	84.1	> 30	> 30			
O=C1CCC(N2Cc3cc(O[C@H]4CCCC[C@@H]4N4CC(C5CCCCC5)C4)ccc3C2=O)C(=O)N1 (stereo partly drawn) [Compound 1, 3-(5-(((1S,2S)-2-(3-cyclohexylazetidin-1-yl)cyclohexyl)oxy)-1-oxoisoindolin-2-yl)piperidine-2,6-dione]	> 30	0.004	85.1	85.1	> 30	> 30			
O=C1CCC(N2Cc3cc(O[C@H]4CCCC[C@@H]4N4CC(C5CC5)C4)ccc3C2=O)C(=O)N1 (stereo partly drawn) [Compound 3, 3-(5-(((1S,2S)-2-(3-cyclopropylazetidin-1-yl)cyclohexyl)oxy)-1-oxoisoindolin-2-yl)piperidine-2,6-dione]	> 30	0.012	67.7	67.7	> 30	> 30			
O=C1CCC(N2Cc3cc(O[C@H]4CCCC[C@@H]4N4CC(C5CCCC(F)(F)C5)C4)ccc3C2=O)C(=O)N1 (stereo partly drawn) [Compound 20, 3-(5-(((1S,2S)-2-(3-(3,3-difluorocyclohexyl)azetidin-1-yl)cyclohexyl)oxy)-1-oxoisoindolin-2-yl)piperidine-2,6-dione]	> 30	0.003	85	85	> 30	> 30			
O=C1CCC(N2Cc3cc(O[C@H]4CCC[C@@H]4N4CC(C5CCC(F)(F)CC5)C4)ccc3C2=O)C(=O)N1 (stereo partly drawn) [Compound 13, 3-(5-(((1S,2S)-2-(3-(4,4-difluorocyclohexyl)azetidin-1-yl)cyclopentyl)oxy)-1-oxoisoindolin-2-yl)piperidine-2,6-dione]	> 30	0.005	75.9	75.9	> 30	> 30			
O=C1CCC(N2Cc3cc(O[C@H]4CCC[C@@H]4N4CC(C5CC5)C4)ccc3C2=O)C(=O)N1 (stereo partly drawn) [Compound 22, 3-(5-(((1S,2S)-2-(3-cyclopropylazetidin-1-yl)cyclopentyl)oxy)-1-oxoisoindolin-2-yl)piperidine-2,6-dione]	> 30	0.009	82.6	82.6	> 30	> 30			
O=C1CCC(N2Cc3cc(O[C@H]4CCCC[C@@H]4N4CC(C5CC(F)(F)C5)C4)ccc3C2=O)C(=O)N1 (stereo partly drawn) [Compound 18, 3-(5-(((1S,2S)-2-(3-(3,3-difluorocyclobutyl)azetidin-1-yl)cyclohexyl)oxy)-1-oxoisoindolin-2-yl)piperidine-2,6-dione]	> 30	0.029	71.1	95.8	> 30	> 30			
CC(C)OC1CCC(C2CN([C@H]3CCCC[C@@H]3Oc3ccc4c(c3)CN(C3CCC(=O)NC3=O)C4=O)C2)CC1 (stereo partly drawn) [Compound 17, 3-(5-(((1S,2S)-2-(3-((trans)-4-isopropoxycyclohexyl)azetidin-1-yl)cyclohexyl)oxy)-1-oxoisoindolin-2-yl)piperidine-2,6-dione]	> 30	0.001			> 30	> 30		96.7	96.7
O=C1CCC(N2Cc3cc(O[C@H]4CCCC[C@@H]4N4CC(C5CCCC5)C4)ccc3C2=O)C(=O)N1 (stereo partly drawn) [Compound 6, 3-(5-(((1S,2S)-2-(3-cyclopentylazetidin-1-yl)cyclohexyl)oxy)-1-oxoisoindolin-2-yl)piperidine-2,6-dione]	> 30	0.003	86.3	86.3	> 30	> 30			
CCOC1CCC(C2CN([C@H]3CCCC[C@@H]3Oc3ccc4c(c3)CN(C3CCC(=O)NC3=O)C4=O)C2)CC1 (stereo partly drawn) [Compound 19, 3-(5-(((1S,2S)-2-(3-(4-ethoxycyclohexyl)azetidin-1-yl)cyclohexyl)oxy)-1-oxoisoindolin-2-yl)piperidine-2,6-dione]	> 30	0.002	72.8	72.8	> 30	> 30			
